Assay results: patent publication US5087631A, “Oxathi(SIV)azol-5-one compounds” (Glaxo Inc., priority 1990, dated 1992)

system: thoracic aortas; assay: Aorta Vasodilation Assay (relaxation of phenylephrine-contracted, endothelium-removed rat thoracic aorta rings); set-up: species or system male Sprague-Dawley rats; conditions: 20% O2, without methylene blue, endothelium-removed rings contracted with phenylephrine (1×10^-7 M), SOD 100 U/mL, cumulative addition, read-out: IC50 (relaxation induced by test compound, vasodilation assay)
Method: The thoracic aortas removed from euthanized male Sprague-Dawley rats (200-300 g) are cleaned of adherent connective tissue and cut into rings 3 to 5 mm in length. Endothelium is removed by rolling the rings on moist filter paper. […] Tissues are mounted to isometric force displacement transducers and responses are recorded on a polygraph.
All rings are gradually stretched (over a 120 min. period) to a basal resting tension of 2 g, which is maintained throughout the assay. During the basal tension adjustment period, the rings are exposed to KCl (40 mM) two to three times to verify tissue contractility. During this period, the effectiveness of endothelium removal is confirmed by the absence of the characteristic relaxation seen with acetylcholine (1×10^-6 M) in endothelium-intact (but not endothelium-removed) rings contracted with phenylephrine (1×10^-7 M).
Phenylephrine (1×10^-7 M) is then added and the rings are allowed to obtain a stable contractile response after which time, SOD (100 U/mL) is added to the tissues. The test compound is then added in a cumulative fashion. After the stabilization of the response to the last concentration of the test compound, sodium nitroprusside (1×10^-4 M) is added to induce complete relaxation.

Row | Structure (SMILES) | IC50 [µM]
1 | COc1ccc(-c2[s+]noc2[O-])cc1 [4-methoxyphenyl, 4-(4-methoxyphenyl)-5H-1,3,2-oxathi(SIV)azol-5-one] | 1.3
2 | O=[N+]([O-])c1ccc(-c2[s+]noc2[O-])cc1 [4-nitrophenyl, 4-(4-nitrophenyl)-5H-1,3,2-oxathi(SIV)azol-5-one] | 16
3 | Cc1[s+]noc1[O-] [methyl, 4-Methyl-5H-1,3,2-oxathi(SIV)azol-5-one] | 20
4 | [O-]c1on[s+]c1-c1ccccc1 [phenyl, 4-phenyl-5H-1,3,2-oxathi(SIV)azol-5-one] | 2.3
